# According to patent publication US9326960B2, “Composition for preventing or treating eye diseases, containing S-allyl-L-cysteine as active ingredient, and pharmaceutical formulation containing same” (PHARMAKING CO., LTD., priority 2012, dated 2016):
# Tests used:
# [1] = Suppressive activity against blue light-induced oxidation of A2E (cell-free, absorbance); conditions: 20 μM A2E in PBS, blue light ca. 430 nm, compared to non-treated
# Protocol: Assay of S-Allyl-Cysteine for Suppressive Activity Against Blue Light-Induced Oxidation of A2E S-Allyl-cysteine was assayed for the ability to suppress the blue light-induced oxidation of A2E. First, 100 μM A2E was diluted to 20 μM in phosphate buffered saline (PBS), and 200 μl of the dilution was placed in each well of 96-well plates. Then, a negative control, a positive control (lutein 20 μM), or predetermined concentrations of S-allyl-cysteine (1, 10, 100 μM) were added to the dilution, and mixed by pipetting. An LED lamp emitting blue light with a central wavelength of ca. 430 nm was operated above the microplates to induce photo-oxidation until the A2E absorbance was reduced by half. Absorbance was read on an ELISA before and after the induction of photo-oxidation. The measurements were applied to an A2E standard curve to obtain concentrations of A2E, and the difference in concentration before and after exposure to blue light was used to obtain the concentration of oxidized A2E. From the data, the inhibitory activity of the sample against A2E photo-oxidation was calculated according to the following Mathematical Formula 1. In Formula 1, Abs. means absorbance. [formula] A=Abs. of A2E−Abs. of A2E+blue light B={Abs. of A2E+sample)−Abs. of sample}−{(Abs. of A2E+sample+blue light)−(Abs. of sample−Abs. of sample+blue light)} In order to evaluate the inhibitory activity of S-allyl-L-cysteine against A2E photooxidation, concentrations of oxidized A2E were measured after exposure to blue radiation as described in Experimental Example 1, and the results are depicted in FIG. 1.
# [2] = system: Human retinal pigment epithelial cell line (ARPE-19); test: Cytoprotective activity against blue light-induced apoptosis of A2E-accumulated ARPE-19 cells (MTT assay); format: cell-based; conditions: A2E-accumulated ARPE-19 exposed to blue light; for increase of cell viability: compared to the negative control
# From the text: The retinal pigment cell line used in experiments and analyses of the present invention arose from a retinal pigment epithelial cell line (ARPE-19: ATCC no. CRL-2302) purchased from the ATCC (American Type Culture Collection, Manassas Va.), and was maintained by passage as described in document (Sparrow, J. R. et al., A2E, alipofuscin fluorophore, in human retinal pigmented epithelial cells in culture. Invest Ophthalmol Vis Sci 1999, 40(12), 2988-95).
# Briefly, the retinal pigment cell line was cultured in Dulbecco's modified Eagle's medium (DMEM, Gibco, USA) supplemented with antibiotics (Gibco, USA) including 100 U/ml penicillin, […] streptomycin, and amphotericin B, and 10% fetal bovine serum (Hyclone, USA) at 37° C. under 5% CO2 conditions. The cells were allowed to adhere to the bottom of the culture plate, and cultured, with passage by treatment with a mixture of 1:4 trypsin:10% fetal bovine serum (Gibco, USA)-supplemented medium upon confluence.
# For use in experiments, the cells were seeded at a density of 5×10^4 cells/well into 6-well plates.
# Cytoprotective Activity of S-Allyl-Cysteine Against Blue Light-Induced Apoptosis of A2E-Accumulated Human Retinal Pigment Epithelial Cell Line CARPE-19)
# Human retinal pigment cell line (ARPE-19) was seeded at a density of 5×10^4 cells/well into 96-well plates, and incubated with 20 μM A2E for 7 days to accumulate A2E. Then, the cells were treated with a negative control, a positive control (lutein: 20 μM), or predetermined concentrations of S-allyl-cysteine (1, 10, 100 μM) before exposure to blue light as described above.
# Thereafter, cell viability was measured using 3-(4,5-dimethylthiazol-2-yl)-2,5-diphenyltetrazoliumbromide (MTT) assay. An MTT assay is a standard colorimetric assay for assessing cell viability, usually in a lab. Generally, viable cells are counted using a hemocytometer, or by measuring optical density; however, this method requires too much time and labor for large numbers of cells, and is apt to yield inaccurate results. As an alternative, the MTT assay is designed such that the yellow substrate tetrazolium MTT is reduced by metabolically active cells, in part by the action of mitochondrial dehydrogenase enzymes, into purple formazan that can be solubilized and quantified by spectrophotometric means. This assay can analyze the proliferation behavior of large numbers of cells rapidly and accurately. […] More viable cells produce a greater amount of formazan crystals, recoding higher absorbance.
# According to the MTT assay (Sigma-Aldrich Inc., St. Louis, Mo., U.S.A.), DMEM containing 0.5 mg/ml MTT was added to each well and incubated at 37° C. for 2 hrs in an incubator under dark conditions. […]
SMILES,decrease of concentration of oxidized A2E ([1]; 1 μM S-allyl-cysteine) [%],decrease of concentration of oxidized A2E ([1]; 10 μM S-allyl-cysteine) [%],decrease of concentration of oxidized A2E ([1]; 100 μM S-allyl-cysteine) [%],increase of cell viability ([2]; 1 μM) [%],increase of cell viability ([2]; 10 μM) [%],increase of cell viability ([2]; 100 μM) [%],cell viability versus negative control (result in words) ([2]; lutein 20 μM)
"C=CCSC[C@H](N)C(=O)O [S-allyl-cysteine, S-allyl-L-cysteine]",20,32,41,63,134,167,
"CC1=C[C@H](O)CC(C)(C)[C@H]1/C=C/C(C)=C/C=C/C(C)=C/C=C/C=C(C)/C=C/C=C(C)/C=C/C1=C(C)C[C@@H](O)CC1(C)C [positive control, lutein, reference compound]",,,,,,,significant difference in cell viability
